Measurements from EP4581943A1, “AEROSOLISABLE MATERIAL FOR USE IN AN ARTICLE” (BT DE Investments Inc., priority 2024, dated 2025).

How the values were obtained:
[1] = assay type: physicochemical
Procedure: (§1) Solvent systems were prepared and then CBG was added in a step-wise fashion and mixed until dissolved (according to visual inspection). The time taken for each addition to be solubilized was recorded.

[2] = Solubility of CBC in solvent systems, step-wise addition, visual inspection; assay type: physicochemical; conditions: cumulative CBC concentration after addition; solvent PG:VG 70:30
Procedure: as §1
A similar approach was taken as for example 1, but this time CBC was assessed.

Row | Compound | CBG concentration the solvent system could sustain [1] [%w/w] | time taken to solubilize approximately 5% CBG [1] [h] | Concentration [2] [%w/w]
1 | CCCCCc1cc(O)c(C/C=C(\C)CCC=C(C)C)c(O)c1 [CBG, cannabigerol] | ≤ 5 | > 2 | 
2 | CCCCCc1cc(O)c2c(c1)OC(C)(CCC=C(C)C)C=C2 (stereo not drawn) [CBC, cannabichromene] |  |  | 3.0319
